Legend:
[1] = target: T1, Zinc finger and BTB domain-containing protein 2 (Homo sapiens) (UniProt Q8N680); details: OCI-Ly1, Compound concentration 1.0 uM
T1 sequence (whole entry): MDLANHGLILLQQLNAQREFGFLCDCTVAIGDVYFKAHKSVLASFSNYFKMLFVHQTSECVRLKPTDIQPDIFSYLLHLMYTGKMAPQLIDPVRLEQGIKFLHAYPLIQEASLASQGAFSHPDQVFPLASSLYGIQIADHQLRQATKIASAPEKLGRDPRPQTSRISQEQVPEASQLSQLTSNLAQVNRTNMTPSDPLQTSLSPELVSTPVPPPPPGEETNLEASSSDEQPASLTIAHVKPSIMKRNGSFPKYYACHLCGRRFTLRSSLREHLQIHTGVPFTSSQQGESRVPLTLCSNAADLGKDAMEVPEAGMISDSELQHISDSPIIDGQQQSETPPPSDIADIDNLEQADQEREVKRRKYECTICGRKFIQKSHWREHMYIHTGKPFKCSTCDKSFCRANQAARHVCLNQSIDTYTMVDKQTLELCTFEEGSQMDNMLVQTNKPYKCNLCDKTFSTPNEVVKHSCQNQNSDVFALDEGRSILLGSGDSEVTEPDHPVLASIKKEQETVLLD

[2] = target: Death-associated protein kinase 1 (Homo sapiens) (UniProt P53355); assay: DAPK1 SGC Tm panel (DSF); details: Compound concentration 20.0 uM
[3] = target: Ephrin type-B receptor 1 (Homo sapiens) (UniProt P54762); assay: EPHB1 SGC Tm panel (DSF); details: Compound concentration 20.0 uM
[4] = target: T2, Zinc finger and BTB domain-containing protein 44 (Homo sapiens) (UniProt Q8NCP5); details: SUD4, Compound concentration 1.0 uM
T2 sequence (whole entry): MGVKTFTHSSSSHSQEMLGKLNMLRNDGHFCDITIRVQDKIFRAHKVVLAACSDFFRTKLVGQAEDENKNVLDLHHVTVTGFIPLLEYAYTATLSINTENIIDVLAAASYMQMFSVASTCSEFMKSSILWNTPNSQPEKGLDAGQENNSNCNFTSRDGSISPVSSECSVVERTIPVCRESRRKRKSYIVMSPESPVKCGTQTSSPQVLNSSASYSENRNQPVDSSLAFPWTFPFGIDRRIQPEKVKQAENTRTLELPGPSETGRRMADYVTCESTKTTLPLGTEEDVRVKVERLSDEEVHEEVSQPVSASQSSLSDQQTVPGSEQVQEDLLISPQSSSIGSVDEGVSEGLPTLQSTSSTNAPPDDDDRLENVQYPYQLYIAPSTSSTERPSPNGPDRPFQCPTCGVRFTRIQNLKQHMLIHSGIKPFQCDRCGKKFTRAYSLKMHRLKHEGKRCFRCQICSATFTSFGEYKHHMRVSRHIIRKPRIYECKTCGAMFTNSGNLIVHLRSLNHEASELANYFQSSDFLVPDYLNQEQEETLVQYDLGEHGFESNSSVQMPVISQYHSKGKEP

[5] = target: Serine/threonine-protein kinase MRCK alpha (Homo sapiens) (UniProt Q5VT25); assay: CDC42BPA SGC Tm panel (DSF); details: Compound concentration 20.0 uM
[6] = target: 5-hydroxytryptamine receptor 6 (Homo sapiens) (UniProt P50406); details: Compound concentration 10.0 uM
Rattus norvegicus = organism: Rattus norvegicus; details: Compound concentration 10.0 uM
[7] = target: G protein-coupled receptor kinase 5 (Homo sapiens) (UniProt P34947); assay: GPRK5 SGC Tm panel (DSF); details: Compound concentration 20.0 uM
[8] = target: Ephrin type-A receptor 4 (Homo sapiens) (UniProt P54764); assay: EPHA4 SGC Tm panel (DSF); details: Compound concentration 20.0 uM
[9] = target: Zinc finger and BTB domain-containing protein 43 (Homo sapiens) (UniProt O43298); details: SUD4, Compound concentration 1.0 uM
[10] = target: Delta-type opioid receptor (Homo sapiens) (UniProt P41143); details: Compound concentration 10.0 uM
[11] = target: Transcription initiation factor TFIID subunit 1 (Homo sapiens) (UniProt P21675); assay: TAF1 SGC Tm panel (DSF); details: Compound concentration 20.0 uM
[12] = target: T3, Telomere zinc finger-associated protein (Homo sapiens) (UniProt P10074); details: OCI-Ly1, Compound concentration 1.0 uM
T3 sequence (whole entry): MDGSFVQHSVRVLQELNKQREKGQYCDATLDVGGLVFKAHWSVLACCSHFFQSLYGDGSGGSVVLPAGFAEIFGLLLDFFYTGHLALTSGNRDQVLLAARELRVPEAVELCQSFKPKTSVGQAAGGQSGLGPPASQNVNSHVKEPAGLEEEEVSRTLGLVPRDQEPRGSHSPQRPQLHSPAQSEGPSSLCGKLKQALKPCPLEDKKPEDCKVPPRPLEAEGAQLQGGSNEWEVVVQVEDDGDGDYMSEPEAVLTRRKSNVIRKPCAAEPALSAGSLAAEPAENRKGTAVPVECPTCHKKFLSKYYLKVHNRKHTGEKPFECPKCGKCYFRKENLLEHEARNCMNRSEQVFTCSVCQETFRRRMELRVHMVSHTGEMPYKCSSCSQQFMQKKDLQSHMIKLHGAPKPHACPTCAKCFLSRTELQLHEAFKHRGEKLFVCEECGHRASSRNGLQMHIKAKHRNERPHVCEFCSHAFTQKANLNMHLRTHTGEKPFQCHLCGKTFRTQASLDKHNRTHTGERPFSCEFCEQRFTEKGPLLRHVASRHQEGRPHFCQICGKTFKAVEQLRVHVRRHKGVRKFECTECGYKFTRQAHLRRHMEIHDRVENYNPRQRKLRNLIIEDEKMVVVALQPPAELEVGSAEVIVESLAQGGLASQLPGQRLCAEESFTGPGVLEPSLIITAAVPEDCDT

[13] = target: Vasopressin V1a receptor (Homo sapiens) (UniProt P37288); assay: GPCRScan assay: inhibition of V1A; set-up: radioligand conc. used [nm], parental cells; details: Compound concentration 10.0 uM
[14] = target: Fibroblast growth factor receptor 1 (Homo sapiens) (UniProt P11362); assay: FGFR1 SGC Tm panel (DSF); details: Compound concentration 20.0 uM
[15] = target: Peripheral plasma membrane protein CASK (Homo sapiens) (UniProt O14936); assay: CASK SGC Tm panel (DSF); details: Compound concentration 20.0 uM
[16] = target: Ephrin type-A receptor 2 (Homo sapiens) (UniProt P29317); assay: EPHA2 SGC Tm panel (DSF); details: Compound concentration 20.0 uM
Chain of Ephrin type-A receptor 2 (Homo sapiens) (P29317 whole entry): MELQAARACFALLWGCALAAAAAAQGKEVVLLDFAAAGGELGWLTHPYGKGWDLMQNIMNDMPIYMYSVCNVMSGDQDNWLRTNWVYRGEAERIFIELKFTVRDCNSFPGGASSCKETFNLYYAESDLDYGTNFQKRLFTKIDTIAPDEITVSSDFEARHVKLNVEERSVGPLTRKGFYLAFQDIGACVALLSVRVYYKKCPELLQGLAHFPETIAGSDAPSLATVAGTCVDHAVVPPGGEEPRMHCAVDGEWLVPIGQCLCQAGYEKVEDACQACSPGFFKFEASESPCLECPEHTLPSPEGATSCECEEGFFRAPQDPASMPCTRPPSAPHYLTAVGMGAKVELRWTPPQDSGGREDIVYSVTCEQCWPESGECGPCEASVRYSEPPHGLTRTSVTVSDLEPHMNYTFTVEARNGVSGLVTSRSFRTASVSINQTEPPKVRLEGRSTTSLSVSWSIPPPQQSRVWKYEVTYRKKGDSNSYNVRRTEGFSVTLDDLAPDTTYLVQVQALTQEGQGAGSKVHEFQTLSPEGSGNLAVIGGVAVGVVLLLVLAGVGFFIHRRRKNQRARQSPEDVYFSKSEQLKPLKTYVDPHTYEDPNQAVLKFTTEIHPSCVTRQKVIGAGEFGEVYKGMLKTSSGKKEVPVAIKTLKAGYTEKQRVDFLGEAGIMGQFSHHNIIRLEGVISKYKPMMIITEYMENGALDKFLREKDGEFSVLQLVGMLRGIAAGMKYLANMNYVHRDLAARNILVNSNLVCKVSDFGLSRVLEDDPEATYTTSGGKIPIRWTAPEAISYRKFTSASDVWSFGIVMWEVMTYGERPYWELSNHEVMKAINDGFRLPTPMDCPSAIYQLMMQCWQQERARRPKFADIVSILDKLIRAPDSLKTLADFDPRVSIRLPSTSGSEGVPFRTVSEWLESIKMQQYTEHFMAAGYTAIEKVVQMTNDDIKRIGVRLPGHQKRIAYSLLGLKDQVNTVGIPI

Chain of Death-associated protein kinase 1 (Homo sapiens) (P53355 whole entry, looked up): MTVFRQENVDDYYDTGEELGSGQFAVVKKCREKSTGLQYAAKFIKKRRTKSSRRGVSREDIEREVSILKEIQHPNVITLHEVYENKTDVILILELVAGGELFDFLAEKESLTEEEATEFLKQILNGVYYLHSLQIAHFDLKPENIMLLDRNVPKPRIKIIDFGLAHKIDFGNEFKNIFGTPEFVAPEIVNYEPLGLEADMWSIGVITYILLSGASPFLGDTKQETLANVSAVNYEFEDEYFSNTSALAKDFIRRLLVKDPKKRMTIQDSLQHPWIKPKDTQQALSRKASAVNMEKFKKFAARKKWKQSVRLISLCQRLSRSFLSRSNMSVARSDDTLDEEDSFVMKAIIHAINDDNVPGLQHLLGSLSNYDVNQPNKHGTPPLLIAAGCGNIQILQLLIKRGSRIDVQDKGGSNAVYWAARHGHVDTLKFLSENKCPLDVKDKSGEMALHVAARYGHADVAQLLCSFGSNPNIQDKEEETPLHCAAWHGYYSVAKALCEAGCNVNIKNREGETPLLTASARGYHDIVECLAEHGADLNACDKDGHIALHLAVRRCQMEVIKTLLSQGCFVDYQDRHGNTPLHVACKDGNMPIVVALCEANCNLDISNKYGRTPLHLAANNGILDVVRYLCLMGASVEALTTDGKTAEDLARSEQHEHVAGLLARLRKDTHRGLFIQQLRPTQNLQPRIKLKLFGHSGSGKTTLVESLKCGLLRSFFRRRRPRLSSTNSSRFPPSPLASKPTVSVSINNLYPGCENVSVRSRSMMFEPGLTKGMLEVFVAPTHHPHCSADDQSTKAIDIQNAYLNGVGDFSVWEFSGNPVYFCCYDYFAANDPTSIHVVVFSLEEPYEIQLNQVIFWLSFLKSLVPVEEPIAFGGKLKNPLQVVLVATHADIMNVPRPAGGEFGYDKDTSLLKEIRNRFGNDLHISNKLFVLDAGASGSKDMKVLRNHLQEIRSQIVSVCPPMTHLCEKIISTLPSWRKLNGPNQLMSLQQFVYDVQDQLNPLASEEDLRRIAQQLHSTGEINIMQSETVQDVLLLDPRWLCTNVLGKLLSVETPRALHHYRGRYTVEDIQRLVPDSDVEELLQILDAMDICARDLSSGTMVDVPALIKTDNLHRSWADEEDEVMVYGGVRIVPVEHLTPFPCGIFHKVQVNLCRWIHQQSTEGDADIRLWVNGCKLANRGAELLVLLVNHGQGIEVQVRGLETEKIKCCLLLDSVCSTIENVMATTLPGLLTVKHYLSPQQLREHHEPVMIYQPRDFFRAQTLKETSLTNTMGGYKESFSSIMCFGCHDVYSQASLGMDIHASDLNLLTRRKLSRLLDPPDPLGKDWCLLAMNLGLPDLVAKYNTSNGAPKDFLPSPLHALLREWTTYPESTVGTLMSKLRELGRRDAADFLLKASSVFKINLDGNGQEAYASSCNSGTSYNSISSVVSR
Chain of Peripheral plasma membrane protein CASK (Homo sapiens) (O14936 whole entry): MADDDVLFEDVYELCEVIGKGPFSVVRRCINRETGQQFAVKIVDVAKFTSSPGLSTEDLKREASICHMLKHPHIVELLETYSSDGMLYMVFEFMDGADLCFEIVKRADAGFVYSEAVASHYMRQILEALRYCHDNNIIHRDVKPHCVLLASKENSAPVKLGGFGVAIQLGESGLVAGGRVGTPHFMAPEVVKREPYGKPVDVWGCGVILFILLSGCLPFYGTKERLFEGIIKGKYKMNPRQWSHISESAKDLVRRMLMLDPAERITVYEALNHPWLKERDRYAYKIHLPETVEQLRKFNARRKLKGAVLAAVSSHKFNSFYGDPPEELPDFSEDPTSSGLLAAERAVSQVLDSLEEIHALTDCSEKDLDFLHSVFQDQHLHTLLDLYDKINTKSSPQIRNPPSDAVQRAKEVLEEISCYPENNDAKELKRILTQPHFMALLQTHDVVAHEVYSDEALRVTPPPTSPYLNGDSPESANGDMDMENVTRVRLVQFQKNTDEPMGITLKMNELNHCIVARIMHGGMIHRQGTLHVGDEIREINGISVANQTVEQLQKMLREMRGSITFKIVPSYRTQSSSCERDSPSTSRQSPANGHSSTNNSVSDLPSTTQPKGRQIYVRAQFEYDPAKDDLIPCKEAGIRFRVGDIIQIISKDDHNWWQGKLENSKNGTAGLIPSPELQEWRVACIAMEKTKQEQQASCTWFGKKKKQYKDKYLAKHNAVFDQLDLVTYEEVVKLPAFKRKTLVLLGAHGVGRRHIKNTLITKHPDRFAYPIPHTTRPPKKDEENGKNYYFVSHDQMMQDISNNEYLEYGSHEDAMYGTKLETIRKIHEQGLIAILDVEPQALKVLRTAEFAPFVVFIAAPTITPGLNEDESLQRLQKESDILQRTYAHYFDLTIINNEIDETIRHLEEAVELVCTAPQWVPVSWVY
Chain of Fibroblast growth factor receptor 1 (Homo sapiens) (P11362 22-822 limits assumed): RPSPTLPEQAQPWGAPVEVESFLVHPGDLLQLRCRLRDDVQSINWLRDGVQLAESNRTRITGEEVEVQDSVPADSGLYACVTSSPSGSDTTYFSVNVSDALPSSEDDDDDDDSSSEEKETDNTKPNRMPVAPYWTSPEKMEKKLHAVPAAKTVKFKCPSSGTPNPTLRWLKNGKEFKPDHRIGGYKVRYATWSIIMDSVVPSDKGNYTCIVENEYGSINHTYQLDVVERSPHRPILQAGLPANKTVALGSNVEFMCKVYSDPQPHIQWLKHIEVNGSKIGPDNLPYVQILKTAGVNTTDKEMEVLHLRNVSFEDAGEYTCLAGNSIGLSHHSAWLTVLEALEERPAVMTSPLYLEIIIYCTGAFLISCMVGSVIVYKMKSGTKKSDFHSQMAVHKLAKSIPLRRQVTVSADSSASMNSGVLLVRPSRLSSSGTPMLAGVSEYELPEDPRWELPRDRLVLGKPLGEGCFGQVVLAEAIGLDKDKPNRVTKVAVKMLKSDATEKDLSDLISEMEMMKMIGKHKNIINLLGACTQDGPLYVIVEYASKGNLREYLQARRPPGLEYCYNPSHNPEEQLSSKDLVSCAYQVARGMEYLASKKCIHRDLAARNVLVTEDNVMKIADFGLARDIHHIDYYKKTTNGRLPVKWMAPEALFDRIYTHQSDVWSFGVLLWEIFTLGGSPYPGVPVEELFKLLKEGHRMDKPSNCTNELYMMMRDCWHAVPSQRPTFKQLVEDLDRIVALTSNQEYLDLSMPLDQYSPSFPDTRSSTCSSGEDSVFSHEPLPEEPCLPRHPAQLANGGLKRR
Chain of 5-hydroxytryptamine receptor 6 (Homo sapiens) (P50406 whole entry): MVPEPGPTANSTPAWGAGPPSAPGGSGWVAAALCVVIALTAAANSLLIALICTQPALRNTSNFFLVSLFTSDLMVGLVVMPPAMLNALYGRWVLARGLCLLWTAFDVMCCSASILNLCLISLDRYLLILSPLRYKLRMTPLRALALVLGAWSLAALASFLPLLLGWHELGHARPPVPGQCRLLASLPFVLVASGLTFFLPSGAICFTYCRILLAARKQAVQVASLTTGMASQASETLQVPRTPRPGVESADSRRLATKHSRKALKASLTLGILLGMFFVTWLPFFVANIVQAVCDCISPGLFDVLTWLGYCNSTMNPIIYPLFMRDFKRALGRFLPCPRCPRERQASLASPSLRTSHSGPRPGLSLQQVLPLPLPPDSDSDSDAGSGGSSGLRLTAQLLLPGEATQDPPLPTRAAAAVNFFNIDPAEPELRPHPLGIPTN
Chain of Vasopressin V1a receptor (Homo sapiens) (P37288 whole entry, looked up): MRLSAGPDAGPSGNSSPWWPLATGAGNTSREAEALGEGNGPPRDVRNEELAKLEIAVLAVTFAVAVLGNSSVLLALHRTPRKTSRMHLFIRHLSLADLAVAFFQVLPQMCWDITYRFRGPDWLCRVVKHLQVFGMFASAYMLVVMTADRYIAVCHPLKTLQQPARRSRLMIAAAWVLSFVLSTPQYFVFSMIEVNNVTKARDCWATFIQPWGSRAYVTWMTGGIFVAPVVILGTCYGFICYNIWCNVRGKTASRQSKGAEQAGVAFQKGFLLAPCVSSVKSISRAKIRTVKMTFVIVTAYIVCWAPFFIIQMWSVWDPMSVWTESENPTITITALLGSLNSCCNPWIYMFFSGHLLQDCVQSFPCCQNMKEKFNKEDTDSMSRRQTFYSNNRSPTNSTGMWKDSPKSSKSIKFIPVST

`C[C@@H]1CN(c2ncc(Cl)c(Nc3ccc4c(c3)n(CCC(C)(C)O)c(=O)n4C)n2)C[C@H](C)C1(F)F` showed a LogFC [1] of 0.239, a Tm [2] of 53 °C and a Tm [3] of 57 °C. It also gave a LogFC [4] of -0.235, a Tm [5] of 43 °C and an inhibition [6] of 3.94%. The inhibition (Rattus norvegicus) was 59.6%, the Tm [7] was 40 °C and the Tm [8] was 54 °C. The LogFC [9] was 0.0194, the inhibition [10] was 18.1% and the Tm [11] was 56 °C. It also gave a LogFC [12] of 0.0229, an inhibition [13] of 78.6% and a Tm [14] of 50 °C. The Tm [15] was 68 °C and the Tm [16] was 46 °C.
